Laboratory results from ChEMBL document CHEMBL3044826, “Design, synthesis and biological evaluation of some novel substituted 2-mercapto-3-phenethylquinazolines as antitumor agents” (2013).

Assays:
Format in all cases: functional
UO-31 = assay: Cytotoxicity against Homo sapiens (human) UO31 cells assessed as growth inhibition at 10 uM after 48 hr by coulter counter analysis; details: UO-31, 48 h, read-out: GI
TK-10 = assay: Cytotoxicity against Homo sapiens (human) TK10 cells assessed as growth inhibition at 10 uM after 48 hr by coulter counter analysis; details: TK-10, 48 h, read-out: GI
RXF 393 = assay: Cytotoxicity against Homo sapiens (human) RXF393 cells assessed as growth inhibition at 10 uM after 48 hr by coulter counter analysis; details: RXF 393, 48 h, read-out: GI
CAKI-1 = assay: Cytotoxicity against Homo sapiens (human) Caki1 cells assessed as growth inhibition at 10 uM after 48 hr by coulter counter analysis; details: CAKI-1, 48 h, read-out: GI
ACHN = assay: Cytotoxicity against Homo sapiens (human) ACHN cells assessed as growth inhibition at 10 uM after 48 hr by coulter counter analysis; details: read-out: GI
SK-OV-3 = assay: Cytotoxicity against Homo sapiens (human) SKOV3 cells assessed as growth inhibition at 10 uM after 48 hr by coulter counter analysis; details: SK-OV-3, 48 h, read-out: GI
MDA-MB-468 = assay: Cytotoxicity against Homo sapiens (human) MDA-MB-468 cells assessed as growth inhibition at 10 uM after 48 hr by coulter counter analysis; details: MDA-MB-468, 48 h, read-out: GI
MDA-MB-231 = assay: Cytotoxicity against Homo sapiens (human) MDA-MB-231 cells assessed as growth inhibition at 10 uM after 48 hr by coulter counter analysis; details: MDA-MB-231, 48 h, read-out: GI
MCF7 = assay: Cytotoxicity against Homo sapiens (human) MCF7 cells assessed as growth inhibition at 10 uM after 48 hr by coulter counter analysis; details: MCF7, 48 h, read-out: GI
DU-145 = assay: Cytotoxicity against Homo sapiens (human) DU145 cells assessed as growth inhibition at 10 uM after 48 hr by coulter counter analysis; details: DU-145, 48 h, read-out: GI
PC-3 = assay: Cytotoxicity against Homo sapiens (human) PC3 cells assessed as growth inhibition at 10 uM after 48 hr by coulter counter analysis; details: PC-3, 48 h, read-out: GI
SK-MEL-28 = assay: Cytotoxicity against Homo sapiens (human) SK-MEL-28 cells assessed as growth inhibition at 10 uM after 48 hr by coulter counter analysis; details: SK-MEL-28, 48 h, read-out: GI
M14 = assay: Cytotoxicity against Homo sapiens (human) M14 cells assessed as growth inhibition at 10 uM after 48 hr by coulter counter analysis; details: M14, 48 h, read-out: GI
Malme-3M = assay: Cytotoxicity against Homo sapiens (human) MALME-3M cells assessed as growth inhibition at 10 uM after 48 hr by coulter counter analysis; details: read-out: GI
LOX IMVI = assay: Cytotoxicity against Homo sapiens (human) LOXIMVI cells assessed as growth inhibition at 10 uM after 48 hr by coulter counter analysis; details: read-out: GI
SNB-19 = assay: Cytotoxicity against Homo sapiens (human) SNB19 cells assessed as growth inhibition at 10 uM after 48 hr by coulter counter analysis; details: SNB-19, 48 h, read-out: GI
SF-295 = assay: Cytotoxicity against Homo sapiens (human) SF295 cells assessed as growth inhibition at 10 uM after 48 hr by coulter counter analysis; details: SF-295, 48 h, read-out: GI
SF-539 = assay: Cytotoxicity against Homo sapiens (human) SF539 cells assessed as growth inhibition at 10 uM after 48 hr by coulter counter analysis; details: SF-539, 48 h, read-out: GI
SF-268 = assay: Cytotoxicity against Homo sapiens (human) SF268 cells assessed as growth inhibition at 10 uM after 48 hr by coulter counter analysis; details: SF-268, 48 h, read-out: GI
KM12 = assay: Cytotoxicity against Homo sapiens (human) KM12 cells assessed as growth inhibition at 10 uM after 48 hr by coulter counter analysis; details: KM12, 48 h, read-out: GI
SW-620 = assay: Cytotoxicity against Homo sapiens (human) SW620 cells assessed as growth inhibition at 10 uM after 48 hr by coulter counter analysis; details: SW-620, 48 h, read-out: GI
HT-29 = assay: Cytotoxicity against Homo sapiens (human) HT-29 cells assessed as growth inhibition at 10 uM after 48 hr by coulter counter analysis; details: HT-29, 48 h, read-out: GI
HCT-116 = assay: Cytotoxicity against Homo sapiens (human) HCT116 cells assessed as growth inhibition at 10 uM after 48 hr by coulter counter analysis; details: HCT-116, 48 h, read-out: GI
HCT-15 = assay: Cytotoxicity against Homo sapiens (human) HCT15 cells assessed as growth inhibition at 10 uM after 48 hr by coulter counter analysis; details: HCT-15, 48 h, read-out: GI
[1] = Cytotoxicity against Homo sapiens (human) NCI-ADR-RES cells assessed as growth inhibition at 10 uM after 48 hr by coulter counter analysis; details: read-out: GI
OVCAR-8 = assay: Cytotoxicity against Homo sapiens (human) OVCAR8 cells assessed as growth inhibition at 10 uM after 48 hr by coulter counter analysis; details: OVCAR-8, 48 h, read-out: GI
OVCAR-5 = assay: Cytotoxicity against Homo sapiens (human) OVCAR5 cells assessed as growth inhibition at 10 uM after 48 hr by coulter counter analysis; details: OVCAR-5, 48 h, read-out: GI
OVCAR-4 = assay: Cytotoxicity against Homo sapiens (human) OVCAR4 cells assessed as growth inhibition at 10 uM after 48 hr by coulter counter analysis; details: OVCAR-4, 48 h, read-out: GI
OVCAR-3 = assay: Cytotoxicity against Homo sapiens (human) OVCAR3 cells assessed as growth inhibition at 10 uM after 48 hr by coulter counter analysis; details: OVCAR-3, 48 h, read-out: GI
IGROV-1 = assay: Cytotoxicity against Homo sapiens (human) IGROV1 cells assessed as growth inhibition at 10 uM after 48 hr by coulter counter analysis; details: IGROV-1, 48 h, read-out: GI
UACC-62 = assay: Cytotoxicity against Homo sapiens (human) UACC62 cells assessed as growth inhibition at 10 uM after 48 hr by coulter counter analysis; details: UACC-62, 48 h, read-out: GI
COLO 205 = assay: Cytotoxicity against Homo sapiens (human) COLO205 cells assessed as growth inhibition at 10 uM after 48 hr by coulter counter analysis; details: COLO 205, 48 h, read-out: GI
NCI-H322M = assay: Cytotoxicity against Homo sapiens (human) NCI-H322M cells assessed as growth inhibition at 10 uM after 48 hr by coulter counter analysis; details: read-out: GI
NCI-H23 = assay: Cytotoxicity against Homo sapiens (human) NCI-H23 cells assessed as growth inhibition at 10 uM after 48 hr by coulter counter analysis; details: NCI-H23, 48 h, read-out: GI

Structure (SMILES)	inhibition of growth at 10 µM (UO-31) [%]	inhibition of growth at 10 µM (TK-10) [%]	inhibition of growth at 10 µM (RXF 393) [%]	inhibition of growth at 10 µM (CAKI-1) [%]	inhibition of growth at 10 µM (ACHN) [%]	inhibition of growth at 10 µM (SK-OV-3) [%]	inhibition of growth at 10 µM (MDA-MB-468) [%]	inhibition of growth at 10 µM (MDA-MB-231) [%]	inhibition of growth at 10 µM (MCF7) [%]	inhibition of growth at 10 µM (DU-145) [%]	inhibition of growth at 10 µM (PC-3) [%]	inhibition of growth at 10 µM (SK-MEL-28) [%]	inhibition of growth at 10 µM (M14) [%]	inhibition of growth at 10 µM (Malme-3M) [%]	inhibition of growth at 10 µM (LOX IMVI) [%]	inhibition of growth at 10 µM (SNB-19) [%]	inhibition of growth at 10 µM (SF-295) [%]	inhibition of growth at 10 µM (SF-539) [%]	inhibition of growth at 10 µM (SF-268) [%]	inhibition of growth at 10 µM (KM12) [%]	further results
O=c1c2ccccc2nc(SCc2nnc(S)n2-c2ccccc2)n1CCc1ccccc1	30	< 10	< 10	17	< 10	< 10	< 10	20	28	< 10	30	< 10	< 10	< 10	< 10	< 10	12	< 10	< 10	< 10	inhibition of growth at 10 µM (SW-620): < 10%; inhibition of growth at 10 µM (HT-29): < 10%; inhibition of growth at 10 µM (HCT-116): < 10%; inhibition of growth at 10 µM (HCT-15): 25%; inhibition of growth at 10 µM [1]: < 10%; inhibition of growth at 10 µM (OVCAR-8): < 10%; inhibition of growth at 10 µM (OVCAR-5): < 10%; inhibition of growth at 10 µM (OVCAR-4): < 10%; inhibition of growth at 10 µM (OVCAR-3): < 10%; inhibition of growth at 10 µM (IGROV-1): 16%; inhibition of growth at 10 µM (UACC-62): 19%; inhibition of growth at 10 µM (COLO 205): < 10%; inhibition of growth at 10 µM (NCI-H322M): < 10%; inhibition of growth at 10 µM (NCI-H23): < 10%
O=c1c2ccccc2nc(SCc2nnc(S)n2Cc2ccccc2)n1CCc1ccccc1	< 10	< 10	< 10	< 10	< 10	< 10	< 10	28	27	< 10	12	< 10	< 10	< 10	14	< 10	< 10	< 10	< 10	< 10	inhibition of growth at 10 µM (SW-620): < 10%; inhibition of growth at 10 µM (HT-29): < 10%; inhibition of growth at 10 µM (HCT-116): 24%; inhibition of growth at 10 µM (HCT-15): < 10%; inhibition of growth at 10 µM [1]: 16%; inhibition of growth at 10 µM (OVCAR-8): < 10%; inhibition of growth at 10 µM (OVCAR-5): < 10%; inhibition of growth at 10 µM (OVCAR-4): < 10%; inhibition of growth at 10 µM (OVCAR-3): < 10%; inhibition of growth at 10 µM (IGROV-1): < 10%; inhibition of growth at 10 µM (UACC-62): 17%; inhibition of growth at 10 µM (COLO 205): < 10%; inhibition of growth at 10 µM (NCI-H322M): < 10%; inhibition of growth at 10 µM (NCI-H23): < 10%
O=c1c2ccccc2nc(SCc2ccc([N+](=O)[O-])cc2)n1CCc1ccccc1	< 10	< 10	< 10	17	< 10	< 10	3	19	< 10	24	< 10	< 10	< 10	< 10	< 10	< 10	< 10	< 10	< 10	< 10	inhibition of growth at 10 µM (SW-620): < 10%; inhibition of growth at 10 µM (HT-29): 15%; inhibition of growth at 10 µM (HCT-116): 20%; inhibition of growth at 10 µM (HCT-15): < 10%; inhibition of growth at 10 µM [1]: 12%; inhibition of growth at 10 µM (OVCAR-8): < 10%; inhibition of growth at 10 µM (OVCAR-5): < 10%; inhibition of growth at 10 µM (OVCAR-4): < 10%; inhibition of growth at 10 µM (OVCAR-3): < 10%; inhibition of growth at 10 µM (IGROV-1): < 10%; inhibition of growth at 10 µM (UACC-62): 22%; inhibition of growth at 10 µM (COLO 205): < 10%; inhibition of growth at 10 µM (NCI-H322M): < 10%; inhibition of growth at 10 µM (NCI-H23): 15%
